Like-named read-outs stand apart in the source and are kept apart here. Where a SMILES comes first, the peptide text is derived from it.
Columns and labels:
A. baumannii [1] = assay: MIC of antibiotic during combined treatment with antimicrobial peptide; format: cell-based, Acinetobacter baumannii; conditions: A. baumannii; combined with peptide at 64 μg/ml
How it was run: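 Using MH broth, we determined combination MICs by titrating the antibiotic into wells and then repeating under the reverse dilution scheme.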

MDRAB 12035 [2] = assay: as above; format: cell-based, Acinetobacter baumannii
How it was run: (§1)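 Broth microdilution in MH medium; strains were diluted to 2×10^6 CFU per ml before plating. Peptide was serially diluted stepwise at 2:1 starting from its MIC, and MH-diluted antibiotic was then added to determine MIC. The reversed arrangement was also tested.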

E. coli = format: cell-based, Escherichia coli; conditions: E. coli
How it was run: as §1

MDREC 1229 = format: cell-based, Escherichia coli
How it was run: as §1

A. baumannii [3] = assay: MIC of antimicrobial peptide during combined treatment with antibiotic; format: cell-based, Acinetobacter baumannii
How it was run: as §1

MDRAB 12035 [4] = assay: as above; format: cell-based, Acinetobacter baumannii
How it was run: as §1

[5] = peptide treatment concentration 1 μg/ml
[6] = peptide treatment concentration 2 μg/ml
[7] = peptide treatment concentration 4 μg/ml
[8] = peptide treatment concentration 6 μg/ml
[9] = peptide treatment concentration 8 μg/ml
[10] = peptide treatment concentration 16 μg/ml
[11] = peptide treatment concentration 32 μg/ml
[12] = peptide treatment concentration 64 μg/ml
[13] = with Erythromycin […] (Conc./MIC 1)
[14] = erythromycin 4 μg/ml (Conc./MIC 1/8)
[15] = erythromycin 8 μg/ml (Conc./MIC 1/4)
[16] = erythromycin 16 μg/ml (Conc./MIC 1/2)
[17] = erythromycin 32 μg/ml (Conc./MIC 1)
[18] = vancomycin 512 μg/ml (Conc./MIC 1/2)
[19] = vancomycin 1024 μg/ml (Conc./MIC 1)

CC[C@H](C)[C@H](NC(=O)[C@H](CCCCN)NC(=O)[C@H](Cc1c[nH]c2ccccc12)NC(=O)[C@@H](N)CCCNC(=N)N)C(=O)N[C@@H](Cc1ccccc1)C(=O)N[C@@H](CCCCN)C(=O)N[C@@H](CCCCN)C(=O)N[C@H](C(=O)N1CCC[C@H]1C(=O)N[C@@H](CCCCN)C(=O)N[C@@H](Cc1ccccc1)C(=O)N[C@@H](CC(C)C)C(=O)N[C@@H](Cc1c[nH]cn1)C(=O)N[C@@H](CO)C(=O)N[C@@H](Cc1ccccc1)C(=O)N[C@@H](CCCCN)C(=O)N[C@@H](CCCCN)C(=O)N[C@@H](Cc1ccccc1)C(N)=O)[C@@H](C)CC [PapMA-5, RWK IFK KIP KFL HSF KKF-NH2] (H-RWKIFKKIPKFLHSFKKF-NH2; N-terminus assumed)
Antibiotic MIC, Linezolid (A. baumannii [1]): 0 µg/mL
Antibiotic MIC, Vancomycin (A. baumannii [1]): 0 µg/mL
Erythromycin MIC during combined treatment with peptide (MDRAB 12035 [2]; [5]): 32 µg/mL
Linezolid MIC during combined treatment with peptide (MDRAB 12035 [2]; [5]): >128 µg/mL
Vancomycin MIC during combined treatment with peptide (MDRAB 12035 [2]; [5]): >128 µg/mL
Erythromycin MIC during combined treatment with peptide (MDRAB 12035 [2]; [6]): 32 µg/mL
Linezolid MIC during combined treatment with peptide (MDRAB 12035 [2]; [6]): 128 µg/mL
Vancomycin MIC during combined treatment with peptide (MDRAB 12035 [2]; [6]): >128 µg/mL
Erythromycin MIC during combined treatment with peptide (MDRAB 12035 [2]; [7]): 16 µg/mL
Linezolid MIC during combined treatment with peptide (MDRAB 12035 [2]; [7]): 64 µg/mL
Vancomycin MIC during combined treatment with peptide (MDRAB 12035 [2]; [7]): 128 µg/mL
Erythromycin MIC during combined treatment with peptide (MDRAB 12035 [2]; [8]): 2 µg/mL
Linezolid MIC during combined treatment with peptide (MDRAB 12035 [2]; [8]): 16 µg/mL
Vancomycin MIC during combined treatment with peptide (MDRAB 12035 [2]; [8]): 32 µg/mL
Erythromycin MIC during combined treatment with peptide (MDRAB 12035 [2]; [9]): 1 µg/mL
Linezolid MIC during combined treatment with peptide (MDRAB 12035 [2]; [9]): 8 µg/mL
Vancomycin MIC during combined treatment with peptide (MDRAB 12035 [2]; [9]): 16 µg/mL
Erythromycin MIC during combined treatment with peptide (MDRAB 12035 [2]; [10]): 0.25 µg/mL
Linezolid MIC during combined treatment with peptide (MDRAB 12035 [2]; [10]): 8 µg/mL
Vancomycin MIC during combined treatment with peptide (MDRAB 12035 [2]; [10]): 8 µg/mL
Erythromycin MIC during combined treatment with peptide (MDRAB 12035 [2]; [11]): 0.125 µg/mL
Linezolid MIC during combined treatment with peptide (MDRAB 12035 [2]; [11]): 4 µg/mL
Vancomycin MIC during combined treatment with peptide (MDRAB 12035 [2]; [11]): 4 µg/mL
Erythromycin MIC during combined treatment with peptide (MDRAB 12035 [2]; [12]): 0 µg/mL
Linezolid MIC during combined treatment with peptide (MDRAB 12035 [2]; [12]): 0 µg/mL
Vancomycin MIC during combined treatment with peptide (MDRAB 12035 [2]; [12]): 0 µg/mL
Peptide MIC (E. coli; [13]): 0 µg/mL
Peptide MIC (E. coli; with Linezolid […] (Conc./MIC 1)): 0 µg/mL
Peptide MIC (E. coli; with Vancomycin 1024 μg/ml (Conc./MIC 1)): 0 µg/mL
Peptide MIC (MDREC 1229; [13]): 0 µg/mL
Peptide MIC (MDREC 1229; with Linezolid 512 μg/ml (Conc./MIC 1)): 0 µg/mL
Peptide MIC during treatment with antibiotic (A. baumannii [3]; [14]): 8 µg/mL
Peptide MIC during treatment with antibiotic (A. baumannii [3]; [15]): 4 µg/mL
Peptide MIC during treatment with antibiotic (A. baumannii [3]; [16]): 2 µg/mL
Peptide MIC during treatment with antibiotic (A. baumannii [3]; [17]): 0 µg/mL
Peptide MIC during treatment with antibiotic (A. baumannii [3]; linezolid 32 μg/ml (Conc./MIC 1/8)): 4 µg/mL
Peptide MIC during treatment with antibiotic (A. baumannii [3]; linezolid 64 μg/ml (Conc./MIC 1/4)): 2 µg/mL
Peptide MIC during treatment with antibiotic (A. baumannii [3]; linezolid […] (Conc./MIC 1)): 0 µg/mL
Peptide MIC during treatment with antibiotic (A. baumannii [3]; linezolid […] (Conc./MIC 1/2)): 1 µg/mL
Peptide MIC during treatment with antibiotic (A. baumannii [3]; [18]): 0.5 µg/mL
Peptide MIC during treatment with antibiotic (A. baumannii [3]; [19]): 0 µg/mL
Peptide MIC during treatment with antibiotic (A. baumannii [3]; vancomycin […] (Conc./MIC 1/4)): 1 µg/mL
Peptide MIC during treatment with antibiotic (A. baumannii [3]; vancomycin […] (Conc./MIC 1/8)): 4 µg/mL
Peptide MIC during treatment with erythromycin (MDRAB 12035 [4]; [14]): 4 µg/mL
Peptide MIC during treatment with erythromycin (MDRAB 12035 [4]; [15]): 4 µg/mL
Peptide MIC during treatment with erythromycin (MDRAB 12035 [4]; [16]): 4 µg/mL
Peptide MIC during treatment with erythromycin (MDRAB 12035 [4]; [17]): 0 µg/mL
Peptide MIC during treatment with linezolid (MDRAB 12035 [4]; linezolid 64 μg/ml (Conc./MIC 1/8)): 4 µg/mL
Peptide MIC during treatment with linezolid (MDRAB 12035 [4]; linezolid 512 μg/ml (Conc./MIC 1)): 0 µg/mL
Peptide MIC during treatment with linezolid (MDRAB 12035 [4]; linezolid […] (Conc./MIC 1/2)): 1 µg/mL
Peptide MIC during treatment with linezolid (MDRAB 12035 [4]; linezolid […] (Conc./MIC 1/4)): 4 µg/mL
Peptide MIC during treatment with vancomycin (MDRAB 12035 [4]; [18]): 2 µg/mL
Peptide MIC during treatment with vancomycin (MDRAB 12035 [4]; [19]): 1 µg/mL
Peptide MIC during treatment with vancomycin (MDRAB 12035 [4]; vancomycin […] (Conc./MIC 1/4)): 4 µg/mL
Peptide MIC during treatment with vancomycin (MDRAB 12035 [4]; vancomycin […] (Conc./MIC 1/8)): 4 µg/mL

From patent publication US11214594B2, “Antimicrobial peptide having synergistic antibacterial effect with antibiotics on multidrug resistant bacteria, and use thereof” (priority 2016, dated 2022)
